Laboratory results: the NIST ThermoML archive (doi:10.1016/j.jct.2012.12.001)
± gives the expanded uncertainty stated by the source.

Assay: heat capacity at constant pressure per volume; xn = mol fraction of the nth substance listed
Conditions: 101 kPa, Liquid, DSC, x2 = 0.713

CCCCCCCCCCCCCCCCCC [octadecane] + N#Cc1ccccc1
Conditions	heat capacity [J/K/m3]
311.31 K	1755300 ± 20000
311.34 K	1755200 ± 20000
311.37 K	1751900 ± 20000
311.39 K	1755200 ± 20000
311.42 K	1754200 ± 20000
311.45 K	1754700 ± 20000
311.48 K	1751100 ± 20000
311.51 K	1751000 ± 20000
311.54 K	1753000 ± 20000
311.56 K	1754300 ± 20000
311.59 K	1755100 ± 20000
311.62 K	1752800 ± 20000
311.65 K	1748600 ± 20000
311.68 K	1753400 ± 20000
311.7 K	1751800 ± 20000
311.73 K	1751000 ± 20000
311.76 K	1752000 ± 20000
311.79 K	1748500 ± 20000
311.82 K	1747200 ± 20000
311.85 K	1749600 ± 20000
311.87 K	1749800 ± 20000
311.9 K	1751600 ± 20000
311.93 K	1750300 ± 20000
311.96 K	1749700 ± 20000
311.99 K	1747400 ± 20000
312.01 K	1746900 ± 20000
312.04 K	1752800 ± 20000
312.07 K	1750900 ± 20000
312.1 K	1745700 ± 20000
312.13 K	1749200 ± 20000
312.15 K	1747500 ± 20000
312.18 K	1746000 ± 20000
312.21 K	1746700 ± 20000
312.24 K	1746500 ± 20000
312.27 K	1747800 ± 20000
312.3 K	1746300 ± 20000
312.32 K	1744700 ± 20000
312.35 K	1746400 ± 20000
312.38 K	1744700 ± 20000
312.41 K	1744900 ± 20000
312.44 K	1743500 ± 20000
312.46 K	1743700 ± 20000
312.49 K	1747600 ± 20000
312.52 K	1745100 ± 20000
312.55 K	1746800 ± 20000
312.58 K	1745400 ± 20000
312.6 K	1744400 ± 20000
312.63 K	1744300 ± 20000
312.66 K	1743700 ± 20000
312.69 K	1745000 ± 20000
312.72 K	1743800 ± 20000
312.75 K	1744000 ± 20000
312.77 K	1743700 ± 20000
312.8 K	1741400 ± 20000
312.83 K	1742500 ± 20000
312.86 K	1743700 ± 20000
312.88 K	1745000 ± 20000
312.91 K	1746300 ± 20000
312.94 K	1744500 ± 20000
312.97 K	1744100 ± 20000
313 K	1743500 ± 20000
313.03 K	1742300 ± 20000
313.05 K	1742800 ± 20000
313.08 K	1741900 ± 20000
313.11 K	1742400 ± 20000
313.14 K	1742800 ± 20000
313.17 K	1739000 ± 20000
313.19 K	1743700 ± 20000
313.22 K	1740000 ± 20000
313.25 K	1739100 ± 20000
313.28 K	1738800 ± 20000
313.31 K	1739500 ± 20000
313.33 K	1740400 ± 20000
313.36 K	1741400 ± 20000
313.39 K	1740700 ± 20000
313.42 K	1739700 ± 20000
313.45 K	1740900 ± 20000
313.48 K	1742600 ± 20000
313.5 K	1740800 ± 20000
313.53 K	1739000 ± 20000
313.56 K	1737700 ± 20000
313.59 K	1739600 ± 20000
313.62 K	1740700 ± 20000
313.64 K	1741100 ± 20000
313.67 K	1740500 ± 20000
313.7 K	1740400 ± 20000
313.73 K	1741200 ± 20000
313.76 K	1739900 ± 20000
313.79 K	1739100 ± 20000
313.81 K	1739300 ± 20000
313.84 K	1739200 ± 20000
313.87 K	1738900 ± 20000
313.9 K	1738100 ± 20000
313.93 K	1738700 ± 20000
313.95 K	1735100 ± 20000
313.98 K	1738800 ± 20000
314.01 K	1737700 ± 20000
314.04 K	1736700 ± 20000
314.07 K	1735400 ± 20000
314.09 K	1737000 ± 20000
314.12 K	1736800 ± 20000
314.15 K	1737300 ± 20000
314.18 K	1733500 ± 20000
314.21 K	1737800 ± 20000
314.24 K	1735200 ± 20000
314.26 K	1736900 ± 20000
314.29 K	1735200 ± 20000
314.32 K	1736400 ± 20000
314.35 K	1737400 ± 20000
314.38 K	1736600 ± 20000
314.4 K	1738700 ± 20000
314.43 K	1736600 ± 20000
314.46 K	1737000 ± 20000
314.49 K	1735500 ± 20000
314.52 K	1735300 ± 20000
314.54 K	1735400 ± 20000
314.57 K	1735300 ± 20000
314.6 K	1735500 ± 20000
314.63 K	1734500 ± 20000
314.66 K	1737100 ± 20000
314.68 K	1735100 ± 20000
314.71 K	1733900 ± 20000
314.74 K	1734500 ± 20000
314.77 K	1733900 ± 20000
314.8 K	1737400 ± 20000
314.82 K	1736200 ± 20000
314.85 K	1735600 ± 20000
314.88 K	1735100 ± 20000
314.91 K	1734300 ± 20000
314.94 K	1734100 ± 20000
314.96 K	1733300 ± 20000
314.99 K	1735100 ± 20000
315.02 K	1735000 ± 20000
315.05 K	1735200 ± 20000
315.08 K	1732600 ± 20000
315.2 K	1734500 ± 20000
315.38 K	1734200 ± 20000
315.57 K	1733800 ± 20000
315.76 K	1733400 ± 20000
315.95 K	1733200 ± 20000
316.14 K	1733100 ± 20000
316.33 K	1732700 ± 20000
316.52 K	1732000 ± 20000
316.71 K	1731600 ± 20000
316.9 K	1731300 ± 20000
317.09 K	1731000 ± 20000
317.28 K	1730800 ± 20000
317.47 K	1730300 ± 20000
317.66 K	1730100 ± 20000
317.85 K	1730000 ± 20000
318.03 K	1729900 ± 20000
318.22 K	1729800 ± 20000
318.41 K	1729400 ± 20000
318.6 K	1729300 ± 20000
318.79 K	1729200 ± 20000
318.98 K	1729000 ± 20000
319.17 K	1728800 ± 20000
319.36 K	1728600 ± 20000
319.55 K	1728600 ± 20000
319.74 K	1728300 ± 20000
319.93 K	1728200 ± 20000
320.12 K	1728000 ± 20000
320.31 K	1728000 ± 20000
320.5 K	1728000 ± 20000
320.68 K	1728000 ± 20000
320.87 K	1727900 ± 20000
321.06 K	1727600 ± 20000
321.25 K	1727500 ± 20000
321.44 K	1727400 ± 20000
321.63 K	1727200 ± 20000
321.82 K	1727200 ± 20000
322.01 K	1727300 ± 20000
322.2 K	1727200 ± 20000
322.39 K	1726900 ± 20000
322.58 K	1726600 ± 20000
322.76 K	1726900 ± 20000
322.95 K	1726900 ± 20000
323.14 K	1726800 ± 20000
323.33 K	1726700 ± 20000
323.52 K	1726500 ± 20000
323.71 K	1726800 ± 20000
323.9 K	1726900 ± 20000
324.09 K	1726700 ± 20000
324.28 K	1726700 ± 20000
324.47 K	1726600 ± 20000
324.66 K	1726600 ± 20000
324.85 K	1726700 ± 20000
325.04 K	1726500 ± 20000
325.23 K	1726500 ± 20000
325.41 K	1726500 ± 20000
325.6 K	1726500 ± 20000
325.79 K	1726500 ± 20000
325.98 K	1726300 ± 20000
326.17 K	1726400 ± 20000
326.36 K	1726600 ± 20000
326.55 K	1726500 ± 20000
326.74 K	1726700 ± 20000
326.93 K	1726700 ± 20000
327.12 K	1726400 ± 20000
327.31 K	1726600 ± 20000
327.5 K	1726500 ± 20000
327.69 K	1726700 ± 20000
327.87 K	1726500 ± 20000
328.06 K	1726500 ± 20000
328.25 K	1726700 ± 20000
328.44 K	1726900 ± 20000
328.63 K	1726600 ± 20000
328.82 K	1726700 ± 20000
329.01 K	1726800 ± 20000
329.2 K	1726900 ± 20000
329.39 K	1726800 ± 20000
329.58 K	1726700 ± 20000
329.77 K	1726700 ± 20000
329.95 K	1726800 ± 20000
330.14 K	1726900 ± 20000
330.33 K	1726900 ± 20000
330.52 K	1726800 ± 20000
330.71 K	1727000 ± 20000
330.9 K	1727000 ± 20000
331.09 K	1727200 ± 20000
331.28 K	1727300 ± 20000
331.47 K	1727100 ± 20000
331.66 K	1727200 ± 20000
331.85 K	1727200 ± 20000
332.04 K	1727200 ± 20000
332.23 K	1727200 ± 20000
332.42 K	1727100 ± 20000
332.61 K	1727100 ± 20000
332.79 K	1727400 ± 20000
332.98 K	1727300 ± 20000
333.17 K	1727400 ± 20000
333.36 K	1727300 ± 20000
333.55 K	1727600 ± 20000
333.74 K	1728000 ± 20000
333.93 K	1727700 ± 20000
334.12 K	1727800 ± 20000
334.31 K	1727700 ± 20000
334.5 K	1727900 ± 20000
334.69 K	1728100 ± 20000
334.88 K	1728200 ± 20000
335.06 K	1728100 ± 20000
335.25 K	1728100 ± 20000
335.44 K	1728300 ± 20000
335.63 K	1728300 ± 20000
335.82 K	1728600 ± 20000
336.01 K	1729000 ± 20000
336.2 K	1729000 ± 20000
336.39 K	1728800 ± 20000
336.58 K	1729000 ± 20000
336.77 K	1729100 ± 20000
336.96 K	1729000 ± 20000
337.15 K	1729000 ± 20000
337.34 K	1729200 ± 20000
337.52 K	1729100 ± 20000
337.71 K	1729200 ± 20000
337.9 K	1729200 ± 20000
338.09 K	1729300 ± 20000
338.28 K	1729700 ± 20000
338.47 K	1729900 ± 20000
338.66 K	1729900 ± 20000
338.85 K	1729600 ± 20000
339.04 K	1730200 ± 20000
339.23 K	1730200 ± 20000
339.42 K	1730600 ± 20000
339.61 K	1730700 ± 20000
339.8 K	1730900 ± 20000
339.99 K	1730600 ± 20000
340.17 K	1730800 ± 20000
340.36 K	1730700 ± 20000
340.55 K	1730900 ± 20000
340.74 K	1731100 ± 20000
340.93 K	1730900 ± 20000
341.12 K	1730900 ± 20000
341.31 K	1731200 ± 20000
341.5 K	1731200 ± 20000
